Experimental data from patent publication US11242334B2, “Heterocyclic compounds as kinase inhibitors, compositions comprising the heterocyclic compound, and methods of use thereof” (JS INNOPHARM (SHANGHAI) LTD, priority 2017, dated 2022).

How the values were obtained:
human ERK2 = biological target: T1, human ERK2 (Homo sapiens, UniProt P28482); test: LanthaScreen TR-FRET enzymatic assay, ERK2; conditions: IC50 values of ERK2 biochemical activity; 5 μM ATP, 400 nM ATF2-GFP substrate
T1 construct: recombinantly expressed as GST-tagged full-length protein purified from E. coli; GST; purchased Invitrogen PV3311; host or cells: E. coli
Method: Compounds were tested in a LanthaScreen™ time-resolved fluorescence energy transfer (TR-FRET) enzymatic assay from Invitrogen. The assay used human ERK2 (Mitogen Activated Kinase 1, Invitrogen, Cat. PV3311) recombinantly expressed as GST-tagged full-length protein purified from E. coli and activated in vitro with MAP2K1. The substrate was a recombinant truncated version (residues 19-96) of ATF2 fused with Green Fluorescent Protein (Invitrogen, Cat. PV4445). Test compounds were prepared and diluted in DMSO in 3-fold serial dilutions to 100× of the final testing concentrations. The compounds were then further diluted to 4× by the kinase reaction buffer (Invitrogen, Cat. PV3189). The enzymatic reaction for compound testing was performed in a white 384-well polypropylene plate (Packard, Cat. 6005214) with a total reaction volume of 10 μl containing 20 ng/ml ERK2, 400 nM substrate, and 5 μM ATP that is around its Km. The assay started with loading 2.5 μl of ERK2 diluted in kinase reaction buffer to wells, followed by addition of equal volume of 4× compounds for 15-min incubation at the room temperature for pre-treatment. The enzymatic reaction was initiated by addition of 5 μl of mixture of the substrate and ATP prepared in kinase reaction buffer. After one hour reaction, 10 μl mixture of EDTA (final 10 mM) and terbium-labeled anti-pATF2 (pThr71) antibody (final 2 nM) (Invitrogen, Cat. PV4451) prepared in TR-FRET antibody dilution buffer (Invitrogen, Cat. PV3574) was added to stop the enzymatic reaction and produce TR-FRET signals. After 30 minutes of incubation at room temperature, the plate was read in Tecan Infinite F200 Pro with the following settings: Excitation 340 nm (30)/Emission1 495 nm (10)/Emission2 520 nm (25). The TR-FRET values were dimensionless numbers that were calculated as the ratio of the acceptor ([…]) signal to the donor (Terbium) signal. Percent of control was calculated as the percentage of compound-treated vs 1% DMSO vehicle-treated. The dose-response curves were generated and the ICsos were calculated by nonlinear sigmoid curve fitting using GraphPad Prism.
The IC50 values of ERK2 biochemical activity for the examples disclosed herein are listed in Table 3, A: ≤10 nM; B: >10 nM and ≤50 nM; C: >50 nM and ≤100 nM; D.>100 nM.

Colo205 cell line = test: Colo205 cell proliferation assay (MTT assay, WST-8 readout); assay type: cell-based; conditions: Homo sapiens; IC50 values of growth inhibition in Colo 205 cells; 72 hours
Procedure, shortened: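 Growth-inhibition IC50 was derived from WST-8 absorbance at 450 nm (2 h development) after 72 h compound exposure at 37° C. Exposure used final 50 μM–0.005 μM compound in 0.5% DMSO. Colo205 cells had been plated at 5,000/well in RPMI-1640 plus 10% FBS and allowed 24 h to attach.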

T1 sequence (P28482 whole entry): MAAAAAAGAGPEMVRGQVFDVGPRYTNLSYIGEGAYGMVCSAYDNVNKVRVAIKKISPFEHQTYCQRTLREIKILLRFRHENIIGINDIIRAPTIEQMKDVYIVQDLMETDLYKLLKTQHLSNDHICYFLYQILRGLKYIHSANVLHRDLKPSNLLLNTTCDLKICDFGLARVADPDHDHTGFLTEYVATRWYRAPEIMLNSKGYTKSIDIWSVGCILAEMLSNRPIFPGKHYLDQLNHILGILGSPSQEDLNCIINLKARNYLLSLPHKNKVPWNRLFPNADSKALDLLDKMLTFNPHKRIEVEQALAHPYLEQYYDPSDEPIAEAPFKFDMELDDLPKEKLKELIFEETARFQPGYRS

Structure (SMILES) | IC50 (human ERK2) | IC50 (Colo205 cell line)
CC(C)Oc1ccc(-c2n[nH]c3ccc(-c4ccn([C@H](CO)c5cccc(Br)c5)c(=O)c4)cc23)cn1 [Example 44, (S)-1-(1-(3-bromophenyl)-2-hydroxyethyl)-4-(3-(6-isopropoxypyridin-3-yl)-1H-indazol-5-yl)pyridin-2(1H)-one] | < 0.01 µM | 0.5 to 1 µM
Cn1cc(-c2n[nH]c3ccc(-c4ccn([C@H](CO)c5cccc(Br)c5)c(=O)c4)cc23)cn1 [Example 45, (S)-1-(1-(3-bromophenyl)-2-hydroxyethyl)-4-(3-(1-methyl-1H-pyrazol-4-yl)-1H-indazol-5-yl)pyridin-2(1H)-one] | < 0.01 µM | ≤ 0.5 µM
Cn1cc(-c2n[nH]c3ccc(-c4ccn([C@H](CO)c5ccc(F)c(Br)c5)c(=O)c4)cc23)cn1 [Example 46, (S)-1-(1-(3-bromo-4-fluorophenyl)-2-hydroxyethyl)-4-(3-(1-methyl-1H-pyrazol-4-yl)-1H-indazol-5-yl)pyridin-2(1H)-one] | < 0.01 µM | ≤ 0.5 µM
Cn1cc(-c2n[nH]c3ccc(-c4ccn([C@H](CO)c5cccc(I)c5)c(=O)c4)cc23)cn1 [Example 47, (S)-1-(2-hydroxy-1-(3-iodophenyl)ethyl)-4-(3-(1-methyl-1H-pyrazol-4-yl)-1H-indazol-5-yl)pyridin-2(1H)-one] | < 0.01 µM | ≤ 0.5 µM
CC(C)Oc1ccc(-c2n[nH]c3ccc(-c4ccn([C@H](CO)c5cccc(I)c5)c(=O)c4)cc23)cn1 [Example 48, (S)-1-(2-hydroxy-1-(3-iodophenyl)ethyl)-4-(3-(6-isopropoxypyridin-3-yl)-1H-indazol-5-yl)pyridin-2(1H)-one] | < 0.01 µM | 0.5 to 1 µM
Cc1cc(-c2n[nH]c3ccc(-c4ccn([C@H](CO)c5cccc(I)c5)c(=O)c4)cc23)ccn1 [Example 49, (S)-1-(2-hydroxy-1-(3-iodophenyl)ethyl)-4-(3-(2-methylpyridin-4-yl)-1H-indazol-5-yl)pyridin-2(1H)-one] | < 0.01 µM | ≤ 0.5 µM
O=c1cc(-c2ccc3[nH]nc(-c4cnn(C5CC5)c4)c3c2)ccn1[C@H](CO)c1ccc(F)c(Cl)c1 [Example 50, (S)-1-(1-(3-chloro-4-fluorophenyl)-2-hydroxyethyl)-4-(3-(1-cyclopropyl-1H-pyrazol-4-yl)-1H-indazol-5-yl)pyridin-2(1H)-one] | < 0.01 µM | 0.5 to 1 µM
O=c1cc(-c2ccc3[nH]nc(-c4cnn(C(F)F)c4)c3c2)ccn1[C@H](CO)c1ccc(F)c(Cl)c1 [Example 51, (S)-1-(1-(3-chloro-4-fluorophenyl)-2-hydroxyethyl)-4-(3-(1-(difluoromethyl)-1H-pyrazol-4-yl)-1H-indazol-5-yl)pyridin-2(1H)-one] | < 0.01 µM | ≤ 0.5 µM
COCCn1cc(-c2n[nH]c3ccc(-c4ccn([C@H](CO)c5ccc(F)c(Cl)c5)c(=O)c4)cc23)cn1 [Example 52, (S)-1-(1-(3-chloro-4-fluorophenyl)-2-hydroxyethyl)-4-(3-(1-(2-methoxyethyl)-1H-pyrazol-4-yl)-1H-indazol-5-yl)pyridin-2(1H)-one] | < 0.01 µM | 1 to 5 µM
Cc1cc(-c2n[nH]c3ccc(-c4ccn(Cc5cccc(Cl)c5)c(=O)c4)cc23)ccn1 [Example 53, 1-(3-chlorobenzyl)-4-(3-(2-methylpyridin-4-yl)-1H-indazol-5-yl)pyridin-2(1H)-one] | < 0.01 µM | 0.5 to 1 µM
Cc1cc(-c2n[nH]c3ccc(-c4ccn(Cc5cc(Br)ccc5F)c(=O)c4)cc23)ccn1 [Example 55, 1-(5-bromo-2-fluorobenzyl)-4-(3-(2-methylpyridin-4-yl)-1H-indazol-5-yl)pyridin-2(1H)-one] | < 0.01 µM | ≤ 0.5 µM
Cc1cc(-c2n[nH]c3ccc(-c4ccn(Cc5ccc(F)c(Br)c5)c(=O)c4)cc23)ccn1 [Example 56, 1-(3-bromo-4-fluorobenzyl)-4-(3-(2-methylpyridin-4-yl)-1H-indazol-5-yl)pyridin-2(1H)-one] | < 0.01 µM | 0.5 to 1 µM
Cc1cc(-c2n[nH]c3ccc(-c4ccn(Cc5cccc(I)c5)c(=O)c4)cc23)ccn1 [Example 57, 1-(3-iodobenzyl)-4-(3-(2-methylpyridin-4-yl)-1H-indazol-5-yl)pyridin-2(1H)-one] | < 0.01 µM | ≤ 0.5 µM
Cc1cc(-c2n[nH]c3ccc(-c4ccn(Cc5cc(F)cc(Cl)c5)c(=O)c4)cc23)ccn1 [Example 58, 1-(3-chloro-5-fluorobenzyl)-4-(3-(2-methylpyridin-4-yl)-1H-indazol-5-yl)pyridin-2(1H)-one] | < 0.01 µM | 0.5 to 1 µM
Cc1cc(-c2n[nH]c3ccc(-c4ccn(Cc5ccccc5C(F)(F)F)c(=O)c4)cc23)ccn1 [Example 59, 4-(3-(2-methylpyridin-4-yl)-1H-indazol-5-yl)-1-(2-(trifluoromethyl)benzyl)pyridin-2(1H)-one] | < 0.01 µM | 1 to 5 µM
Cc1cc(-c2n[nH]c3ccc(-c4ccn(Cc5ccccc5)c(=O)c4)cc23)ccn1 [Example 60, 1-benzyl-4-(3-(2-methylpyridin-4-yl)-1H-indazol-5-yl)pyridin-2(1H)-one] | < 0.01 µM | 0.5 to 1 µM
Cc1cc(-c2n[nH]c3ccc(-c4ccn(Cc5ccc(F)c(F)c5)c(=O)c4)cc23)ccn1 [Example 61, 1-(3,4-difluorobenzyl)-4-(3-(2-methylpyridin-4-yl)-1H-indazol-5-yl)pyridin-2(1H)-one] | < 0.01 µM | 0.5 to 1 µM
Cc1cc(-c2n[nH]c3ccc(-c4ccn(Cc5ccc(Cl)c(F)c5)c(=O)c4)cc23)ccn1 [Example 62, 1-(4-chloro-3-fluorobenzyl)-4-(3-(2-methylpyridin-4-yl)-1H-indazol-5-yl)pyridin-2(1H)-one] | < 0.01 µM | 0.5 to 1 µM
Cc1cc(-c2n[nH]c3ccc(-c4ccn(Cc5cccc(Cl)c5F)c(=O)c4)cc23)ccn1 [Example 63, 1-(3-chloro-2-fluorobenzyl)-4-(3-(2-methylpyridin-4-yl)-1H-indazol-5-yl)pyridin-2(1H)-one] | < 0.01 µM | 0.5 to 1 µM
Cc1cc(-c2n[nH]c3ccc(-c4ccn(Cc5ccc(C#N)cc5)c(=O)c4)cc23)ccn1 [Example 64, 4-((4-(3-(2-methylpyridin-4-yl)-1H-indazol-5-yl)-2-oxopyridin-1(2H)-yl)methyl)benzonitrile] | < 0.01 µM | 1 to 5 µM
Cc1cc(-c2n[nH]c3ccc(-c4ccn(Cc5ccc(F)c(Cl)c5)c(=O)c4)cc23)ccn1 [Example 65, 1-(3-chloro-4-fluorobenzyl)-4-(3-(2-methylpyridin-4-yl)-1H-indazol-5-yl)pyridin-2(1H)-one] | < 0.01 µM | 0.5 to 1 µM
Cc1cc(-c2n[nH]c3ccc(-c4ccn(Cc5cc(Cl)ccc5F)c(=O)c4)cc23)ccn1 [Example 66] | < 0.01 µM | 0.5 to 1 µM
Cc1cc(-c2n[nH]c3ccc(-c4ccn(Cc5cccc(OC(F)(F)F)c5)c(=O)c4)cc23)ccn1 [Example 67, 4-(3-(2-methylpyridin-4-yl)-1H-indazol-5-yl)-1-(3-(trifluoromethoxy)benzyl)pyridin-2(1H)-one] | < 0.01 µM | 1 to 5 µM
Cc1cc(-c2n[nH]c3ccc(-c4ccn(Cc5cccc(F)c5)c(=O)c4)cc23)ccn1 [Example 68, 1-(3-fluorobenzyl)-4-(3-(2-methylpyridin-4-yl)-1H-indazol-5-yl)pyridin-2(1H)-one] | < 0.01 µM | 1 to 5 µM
